Reference: patent US8388931B2, “99m Tc-labeled triphenylphosphonium derivative contrasting agents and molecular probes for early detection and imaging of breast tumors” (priority 2008, dated 2013)
Where two headings read alike, the source gives them in different places.

Details: for Radioactivity Uptake, Bone: Bone (non-organ); for Radioactivity Uptake, Fat: Fat (non-organ); for Radioactivity Uptake, Muscle: Muscle (non-organ); for Radioactivity Uptake, Urine: Urine (non-organ)
Protocol: Rats (n=3) were sacrificed at 1, 3, 5, 10, 30 and 60 min after injection and the distribution of radioactivity in different tissues was determined by gamma well counting with an energy window of 140±15 keV. The biodistribution data is expressed in terms of percentage injected dosage per gram (% ID/g) with mean±standard deviation. Urine samples were collected from the bladder at 30 min after injection, and were analyzed by radioHPLC to determine the presence of metabolic derivatives of the radiotracer. […] Specifically, anterior planar whole-body dynamic images were acquired on an XRT gamma camera (General Electric) using a high-resolution medium energy parallel-hole collimator at one frame per minute for 60 min, with 512×512 matrix, and an energy window of 140±15 keV.

SMILES: CC(=O)[S+]1CC(=O)[N]2CC(=O)[N]3CC(=O)[N](CC(=O)NCCCCCCCCCC[P+](c4ccccc4)(c4ccccc4)c4ccccc4)[99Tc]321=[O].[Br-] (centres unmarked) [^99mTc-Mito10-MAG3]
- Radioactivity Uptake, Bone (1 min after injection, rats): 0.12 ± 0.05 % ID/g
- Radioactivity Uptake, Bone (3 min after injection, rats): 0.05 ± 0.01 % ID/g
- Radioactivity Uptake, Bone (5 min after injection, rats): 0.02 ± 0.24 % ID/g
- Radioactivity Uptake, Bone (10 min after injection, rats): 0.04 ± 0.03 % ID/g
- Radioactivity Uptake, Bone (30 min after injection, rats): 0.01 ± 0.01 % ID/g
- Radioactivity Uptake, Bone (60 min after injection, rats): 0.00 ± 0.00 % ID/g
- Radioactivity Uptake, Brain (1 min after injection, rats): 0.04 ± 0.03 % ID/g
- Radioactivity Uptake, Brain (3 min after injection, rats): 0.02 ± 0.01 % ID/g
- Radioactivity Uptake, Brain (5 min after injection, rats): 0.04 ± 0.03 % ID/g
- Radioactivity Uptake, Brain (10 min after injection, rats): 0.01 ± 0.00 % ID/g
- Radioactivity Uptake, Brain (30 min after injection, rats): 0.01 ± 0.01 % ID/g
- Radioactivity Uptake, Brain (60 min after injection, rats): 0.00 ± 0.00 % ID/g
- Radioactivity Uptake, Colon (1 min after injection, rats): 0.09 ± 0.04 % ID/g
- Radioactivity Uptake, Colon (3 min after injection, rats): 0.08 ± 0.03 % ID/g
- Radioactivity Uptake, Colon (5 min after injection, rats): 0.02 ± 0.01 % ID/g
- Radioactivity Uptake, Colon (10 min after injection, rats): 0.03 ± 0.01 % ID/g
- Radioactivity Uptake, Colon (30 min after injection, rats): 0.04 ± 0.03 % ID/g
- Radioactivity Uptake, Colon (60 min after injection, rats): 0.01 ± 0.00 % ID/g
- Radioactivity Uptake, Fat (1 min after injection, rats): 0.04 ± 0.02 % ID/g
- Radioactivity Uptake, Fat (3 min after injection, rats): 0.06 ± 0.01 % ID/g
- Radioactivity Uptake, Fat (5 min after injection, rats): 0.07 ± 0.05 % ID/g
- Radioactivity Uptake, Fat (10 min after injection, rats): 0.07 ± 0.03 % ID/g
- Radioactivity Uptake, Fat (30 min after injection, rats): 0.01 ± 0.00 % ID/g
- Radioactivity Uptake, Fat (60 min after injection, rats): 0.00 ± 0.00 % ID/g
- Radioactivity Uptake, Heart (1 min after injection, rats): 0.20 ± 0.08 % ID/g
- Radioactivity Uptake, Heart (3 min after injection, rats): 0.27±0.04 % ID/g
- Radioactivity Uptake, Heart (5 min after injection, rats): 0.18 ± 0.07 % ID/g
- Radioactivity Uptake, Heart (10 min after injection, rats): 0.06±0.01 % ID/g
- Radioactivity Uptake, Heart (30 min after injection, rats): 0.02±0.02 % ID/g
- Radioactivity Uptake, Heart (60 min after injection, rats): 0.01 ± 0.00 % ID/g
- Radioactivity Uptake, Kidneys (1 min after injection, rats): 2.30 ± 0.55 % ID/g
- Radioactivity Uptake, Kidneys (3 min after injection, rats): 3.69 ± 0.92 % ID/g
- Radioactivity Uptake, Kidneys (5 min after injection, rats): 3.06 ± 1.41 % ID/g
- Radioactivity Uptake, Kidneys (10 min after injection, rats): 1.79 ± 0.39 % ID/g
- Radioactivity Uptake, Kidneys (30 min after injection, rats): 1.40 ± 0.96 % ID/g
- Radioactivity Uptake, Kidneys (60 min after injection, rats): 0.75 ± 0.59 % ID/g
- Radioactivity Uptake, Liver (1 min after injection, rats): 3.23±1.10 % ID/g
- Radioactivity Uptake, Liver (3 min after injection, rats): 2.41 ± 1.12 % ID/g
- Radioactivity Uptake, Liver (5 min after injection, rats): 1.50 ± 0.84 % ID/g
- Radioactivity Uptake, Liver (10 min after injection, rats): 0.89 ± 0.30 % ID/g
- Radioactivity Uptake, Liver (30 min after injection, rats): 0.32±0.02 % ID/g
- Radioactivity Uptake, Liver (60 min after injection, rats): 0.21 ± 0.07 % ID/g
- Radioactivity Uptake, Lung (1 min after injection, rats): 0.82 ± 1.05 % ID/g
- Radioactivity Uptake, Lung (3 min after injection, rats): 0.31 ± 0.14 % ID/g
- Radioactivity Uptake, Lung (5 min after injection, rats): 0.48 ± 0.43 % ID/g
- Radioactivity Uptake, Lung (10 min after injection, rats): 0.23 ± 0.24 % ID/g
- Radioactivity Uptake, Lung (30 min after injection, rats): 0.05 ± 0.01 % ID/g
- Radioactivity Uptake, Lung (60 min after injection, rats): 0.03 ± 0.01 % ID/g
- Radioactivity Uptake, Muscle (1 min after injection, rats): 0.05 ± 0.02 % ID/g
- Radioactivity Uptake, Muscle (3 min after injection, rats): 0.03 ± 0.01 % ID/g
- Radioactivity Uptake, Muscle (5 min after injection, rats): 0.06 ± 0.01 % ID/g
- Radioactivity Uptake, Muscle (10 min after injection, rats): 0.06 ± 0.01 % ID/g
- Radioactivity Uptake, Muscle (30 min after injection, rats): 0.02 ± 0.01 % ID/g
- Radioactivity Uptake, Muscle (60 min after injection, rats): 0.01 ± 0.00 % ID/g
- Radioactivity Uptake, Pancreas (1 min after injection, rats): 0.32 ± 0.22 % ID/g
- Radioactivity Uptake, Pancreas (3 min after injection, rats): 0.27 ± 0.12 % ID/g
- Radioactivity Uptake, Pancreas (5 min after injection, rats): 0.20 ± 0.17 % ID/g
- Radioactivity Uptake, Pancreas (10 min after injection, rats): 0.12 ± 0.04 % ID/g
- Radioactivity Uptake, Pancreas (30 min after injection, rats): 0.01 ± 0.00 % ID/g
- Radioactivity Uptake, Pancreas (60 min after injection, rats): 0.02 ± 0.01 % ID/g
- Radioactivity Uptake, Skin (1 min after injection, rats): 0.07 ± 0.03 % ID/g
- Radioactivity Uptake, Skin (3 min after injection, rats): 0.10 ± 0.04 % ID/g
- Radioactivity Uptake, Skin (5 min after injection, rats): 0.12 ± 0.08 % ID/g
- Radioactivity Uptake, Skin (10 min after injection, rats): 0.05 ± 0.04 % ID/g
- Radioactivity Uptake, Skin (30 min after injection, rats): 0.04 ± 0.03 % ID/g
- Radioactivity Uptake, Skin (60 min after injection, rats): 0.02 ± 0.01 % ID/g
- Radioactivity Uptake, Small Intestine (1 min after injection, rats): 0.18 ± 0.04 % ID/g
- Radioactivity Uptake, Small Intestine (3 min after injection, rats): 0.67 ± 0.30 % ID/g
- Radioactivity Uptake, Small Intestine (5 min after injection, rats): 0.48 ± 0.14 % ID/g
- Radioactivity Uptake, Small Intestine (10 min after injection, rats): 0.50 ± 0.19 % ID/g
- Radioactivity Uptake, Small Intestine (30 min after injection, rats): 0.52 ± 0.20 % ID/g
- Radioactivity Uptake, Small Intestine (60 min after injection, rats): 0.36 ± 0.41 % ID/g
- Radioactivity Uptake, Spleen (1 min after injection, rats): 0.27 ± 0.12 % ID/g
- Radioactivity Uptake, Spleen (3 min after injection, rats): 0.25 ± 0.17 % ID/g
- Radioactivity Uptake, Spleen (5 min after injection, rats): 0.20 ± 0.08 % ID/g
- Radioactivity Uptake, Spleen (10 min after injection, rats): 0.09 ± 0.04 % ID/g
- Radioactivity Uptake, Spleen (30 min after injection, rats): 0.02 ± 0.02 % ID/g
- Radioactivity Uptake, Spleen (60 min after injection, rats): 0.02 ± 0.01 % ID/g
- Radioactivity Uptake, Stomach (1 min after injection, rats): 0.26 ± 0.04 % ID/g
- Radioactivity Uptake, Stomach (3 min after injection, rats): 0.32 ± 0.12 % ID/g
- Radioactivity Uptake, Stomach (5 min after injection, rats): 0.25 ± 0.26 % ID/g
- Radioactivity Uptake, Stomach (10 min after injection, rats): 0.30 ± 0.24 % ID/g
- Radioactivity Uptake, Stomach (30 min after injection, rats): 0.57 ± 0.41 % ID/g
- Radioactivity Uptake, Stomach (60 min after injection, rats): 0.04 ± 0.05 % ID/g
- Radioactivity Uptake, Thymus (1 min after injection, rats): 006 ± 0.02 % ID/g
- Radioactivity Uptake, Thymus (3 min after injection, rats): 0.12 ± 0.04 % ID/g
- Radioactivity Uptake, Thymus (5 min after injection, rats): 0.07 ± 0.01 % ID/g
- Radioactivity Uptake, Thymus (10 min after injection, rats): 0.04 ± 0.03 % ID/g
- Radioactivity Uptake, Thymus (30 min after injection, rats): 0.01 ± 0.00 % ID/g
- Radioactivity Uptake, Thymus (60 min after injection, rats): 0.01 ± 0.00 % ID/g
- Radioactivity Uptake, Thyroid (1 min after injection, rats): 0.30 ± 0.13 % ID/g
- Radioactivity Uptake, Thyroid (3 min after injection, rats): 0.33 ± 0.07 % ID/g
- Radioactivity Uptake, Thyroid (5 min after injection, rats): 0.27 ± 0.11 % ID/g
- Radioactivity Uptake, Thyroid (10 min after injection, rats): 0.11 ± 0.04 % ID/g
- Radioactivity Uptake, Thyroid (30 min after injection, rats): 0.02 ± 0.02 % ID/g
- Radioactivity Uptake, Thyroid (60 min after injection, rats): 0.01 ± 0.00 % ID/g
- Radioactivity Uptake, Urine (1 min after injection, rats): 0.05 ± 0.05 % ID/g
- Radioactivity Uptake, Urine (3 min after injection, rats): 0.76 ± 0.56 % ID/g
- Radioactivity Uptake, Urine (5 min after injection, rats): 0.68 ± 0.03 % ID/g
- Radioactivity Uptake, Urine (10 min after injection, rats): 2.35 ± 2.63 % ID/g
- Radioactivity Uptake, Urine (30 min after injection, rats): 8.83 ± 8.50 % ID/g
- Radioactivity Uptake, Urine (60 min after injection, rats): 10.85 ± 12.48 % ID/g
- time for hepatic signal to decline to sufficiently low level (liver, after injection): ≤ 30 min
- blood half-life (rats, intravenous injection, estimated): less than 2 min
